Converted amounts (≈) assume the structure as drawn. Where two headings read alike, the source gives them in different places. Positions of bridges follow the written chain, without caps; N, C: chain ends. Non-standard residues stand in square brackets, D forms with d. Residues, ends and D or L forms follow the SMILES beside them. *: point of attachment. Octanoyl(7-Me) = CC(C)CCCCCC(=O)*; dOrn = NCCC[C@@H](N)C(=O)O; Orn = NCCC[C@H](N)C(=O)O
Tests used:
[1] = test system: Saccharomyces cerevisiae VL-48; experiment: MIC, Saccharomyces cerevisiae; assay type: cell-based; conditions: for MIC Sc: Table 2, Saccharomyces cerevisiae VL-48
Experimental: (§1) Minimum inhibitory concentration (MIC) was determined by broth microdilution according to CLSI guidelines. The test medium for most species was Mueller-Hinton broth (MHB). Bacteria were grown overnight to early stationary phase and adjusted in MHB to 5.0×10^5 colony-forming units per mL (c.f.u./mL) in the wells of 96-well microtiter plates, mixed with varying concentrations of test compounds and incubated at 37° C. for 24 h. […] MHBs containing 10% fetal bovine serum (Gibco), 21 mM MgCl, or 1.0 mg/ml LPS (lipopolysaccharides from Escherichia coli O55:B5, Sigma-Aldrich) were used to test their inhibitory effects.

[2] = test system: Bacillus subtilis 168; assay type: cell-based; conditions: for MIC Bs: Table 2, B. subtilis 168
Experimental: as §1

[3] = test system: Pseudomonas aeruginosa PAO1; assay type: cell-based
Experimental: as §1

[4] = test system: Acinetobacter baumannii; assay type: cell-based; conditions: Acinetobacter baumannii; for MIC Ab: Table 2
Experimental: as §1

[5] = test system: Candida albicans; assay type: cell-based; conditions: Candida albicans; for MIC Ca: Table 2
Experimental: as §1

[6] = test system: Enterobacter cloacae NRRL-B-413; assay type: cell-based; conditions: Enterobacter cloacae NRRL-B-413; for MIC En: Table 2
Experimental: as §1

[7] = test system: Methicillin-resistant Staphylococcus aureus ATCC 43300; assay type: cell-based; conditions: for MIC MRSA: Table 2, Methicillin-resistant Staphylococcus aureus ATCC 43300
Experimental: as §1

[8] = test system: Escherichia coli ATCC 25922; experiment: microbe, parasite or virus in culture; assay type: cell-based
Experimental: as §1

[9] = test system: Escherichia coli ATCC 25922; experiment: Resistance acquisition during serial passaging; assay type: cell-based; conditions: serial passaging at subinhibitory concentrations over 30 days
Experimental: Escherichia coli ATCC 25922 was inoculated into MHB overnight at 37° C. with continuous shaking. Cells were diluted 10,000 times in MHB to about 1×10^6 c.f.u./mL. […] Plates with bacteria were incubated at 37° C. without shaking. […] This process was repeated for 30 d, and the final MIC was confirmed by the same antibacterial assay described above. The experiment was performed in quadruplicate, and on each day, the sample that developed the highest resistance was measured to plot the curve.

[10] = test system: E. coli Top10; assay type: cell-based, Escherichia coli; conditions: E. coli Top10
Experimental: as §1

[11] = test system: Colistin-resistant E. coli (E. coli ATCC 25922 carrying mcr-1); assay type: cell-based, Escherichia coli
Experimental: as §1

[12] = test system: E. coli Top10; experiment: Time-kill assay; assay type: cell-based, Escherichia coli; conditions: 10 times the MIC
Experimental: An overnight culture of E. coli Top10 or Pseudomonas aeruginosa PAO1 cells was diluted 1:10,000 in MHB and incubated at 37° C. with agitation at 180 rpm for 2 h (early exponential). The bacteria were then challenged with antibiotics at 10×MIC, brevicidine (20 μg/ml), laterocidine (20 μg/ml) or polymyxin B (10 μg/ml) at room temperature without shaking. An untreated sample of cells was used as a negative control. At intervals, 10 μL aliquots were removed, centrifuged at 10,000 g for 1 min and resuspended in 1.0 mL of sterile PBS. Tenfold-serially-diluted suspensions were plated on MHB agar plates and incubated at 37° C. overnight. Colonies were counted and the number of c.fu. per mL was calculated. For analysis of lysis, 300 μL of culture (OD600=1.0) were treated with 10×MIC of antibiotics for 24 h. Experiments were performed in triplicate.

[13] = test system: E. cloacae NRRL-B-425; assay type: cell-based, Enterobacter cloacae; conditions: E. cloacae NRRL-B-425
Experimental: as §1

[14] = test system: Klebsiella pneumoniae NRRL-B-408; assay type: cell-based; conditions: Klebsiella pneumoniae NRRL-B-408
Experimental: as §1

[15] = LPS binding by isothermal titration calorimetry; set-up: species or system Escherichia coli; conditions: ITC, FIGS. 18a-18b
Experimental: Microcalorimetric experiments of peptide binding to LPS were performed on an MCS isothermal titration calorimeter (ITC) (Microcal, Northampton, Mass.) at 37° C. LPS was prepared as a 50 μM aqueous suspension in 20 mM HEPES (pH 7.0) buffer by suspension, sonication and temperature cycling between 5° C. and 70° C. This suspension was stored at 4° C. overnight prior to use. 100 μM peptide solutions (brevicidine and polymyxin B) were prepared in the same buffer and all solutions were degassed prior to use by stirring under vacuum for 5 min at 37° C. After thermal equilibration, 5 μL aliquots of the peptide solution were added every 3 min into the lipid-containing cell at 37° C. and stirred constantly. The change in heat during the titration steps was registered in real time and raw data were processed using the Origin® 7 software provided with the instrument. In control experiments, the corresponding peptide solution (or LPS solution) was injected into the buffer without LPS (or without peptide).

[16] = test system: K. pneumoniae NRRL-B-3521; assay type: cell-based, Klebsiella pneumoniae; conditions: K. pneumoniae NRRL-B-3521
Experimental: as §1

[17] = Table 2, Pseudomonas aeruginosa PAO1
[18] = Table 2, Escherichia coli ATCC 25922
[19] = E. coli ATCC 25922 + LPS (1.0 mg L^−1)
[20] = E. coli ATCC 25922 + Mg^2+ (21 mM)

CC[C@H](C)[C@@H]1NC(=O)[C@@H](NC(=O)[C@@H](N)Cc2c[nH]c3ccccc23)[C@@H](C)OC(=O)[C@@H](CO)NC(=O)CNC1=O [Compound 4] (H-WTIG[dS]; ester 2-C)
MIC Sc [1]: ND (ND >64 μg/ml) | MIC Bs [2]: ND (ND >64 μg/ml) | MIC Pa [3, 17]: ND (ND >64 μg/ml) | MIC Ab [4]: ND (ND >64 μg/ml) | MIC Ca [5]: ND (ND >64 μg/ml) | MIC En [6]: ND (ND >64 μg/ml) | MIC MRSA [7]: ND (ND >64 μg/ml) | MIC Ec [8, 18]: ND (ND >64 μg/ml)

NCCC[C@H](N)C(=O)NCC(=O)N[C@H](CCCN)C(=O)O [Compound 7] (H-[Orn]-Gly-[dOrn]-OH)
MIC Bs [2]: ND (ND >64 μg/ml) | MIC Pa [3, 17]: ND (ND >64 μg/ml) | MIC MRSA [7]: ND (ND >64 μg/ml) | MIC Ec [8, 18]: ND (ND >64 μg/ml)

CC[C@H](C)[C@@H]1NC(=O)[C@@H](NC(=O)[C@@H](N)Cc2c[nH]c3ccccc23)[C@@H](C)OC(=O)CNC(=O)CNC(=O)[C@H](CC(N)=O)NC1=O [Compound 8] (H-WTINGG; ester 2-C)
MIC Bs [2]: ND (ND >64 μg/ml) | MIC Pa [3, 17]: ND (ND >64 μg/ml) | MIC MRSA [7]: ND (ND >64 μg/ml) | MIC Ec [8, 18]: ND (ND >64 μg/ml)

CC(C)CCCCCC(=O)N[C@H](CO)C(=O)N[C@H](Cc1ccc(O)cc1)C(=O)N[C@H](Cc1c[nH]c2ccccc12)C(=O)N[C@H](CCCN)C(=O)N[C@@H](CCCN)C(=O)NCC(=O)N[C@H](CCCN)C(=O)O [Compound 9] ({Octanoyl(7-Me)}-[dS][dY][dW][dOrn][Orn]G[dOrn]-OH)
MIC Bs [2]: ND (ND >64 μg/ml) | MIC Pa [3, 17]: ND (ND >64 μg/ml) | MIC MRSA [7]: ND (ND >64 μg/ml) | MIC Ec [8, 18]: ND (ND >64 μg/ml)

CC(C)CCCCCC(=O)N[C@H](CO)C(=O)N[C@H](Cc1ccc(O)cc1)C(=O)N[C@H](Cc1c[nH]c2ccccc12)C(=O)N[C@H](CCCN)C(=O)O [Compound 10] ({Octanoyl(7-Me)}-[dS][dY][dW][dOrn]-OH)
MIC Bs [2]: ND (ND >64 μg/ml) | MIC Pa [3, 17]: ND (ND >64 μg/ml) | MIC MRSA [7]: ND (ND >64 μg/ml) | MIC Ec [8, 18]: ND (ND >64 μg/ml)

CC[C@H](C)[C@H](NC(=O)[C@@H](NC(=O)[C@H](Cc1c[nH]c2ccccc12)NC(=O)[C@@H](CCCN)NC(=O)CNC(=O)[C@@H](CCCN)NC(=O)[C@@H](CCCN)NC(=O)[C@@H](Cc1c[nH]c2ccccc12)NC(=O)[C@@H](Cc1ccc(O)cc1)NC(=O)[C@@H](CO)NC(=O)CCCCCC(C)C)[C@@H](C)O)C(=O)N[C@@H](CC(N)=O)C(=O)NCC(=O)NCC(=O)O [Compound 11] ({Octanoyl(7-Me)}-[dS][dY][dW][dOrn][dOrn]G[dOrn]WTINGG-OH)
MIC Bs [2]: ND (ND >64 μg/ml) | MIC Pa ([3]; PAO1): 8 µg/mL (≈ 4.93 µM) | MIC MRSA [7]: ND (ND >64 μg/ml) | MIC Ec ([8]; ATCC 25922): 16 µg/mL (≈ 9.86 µM)

C[C@H]1COc2c(N3CCN(C)CC3)c(F)cc3c(=O)c(C(=O)O)cn1c23 [Levofloxacin, reference compound]
MIC ([8]; Escherichia coli, ATCC25922, positive control of the mouse thigh study, read-out: MIC): 0.032 µg/mL (≈ 0.0886 µM)

O=C(O)c1cn(C2CC2)c2cc(N3CCNCC3)c(F)cc2c1=O [ciprofloxacin, reference compound]
development of resistance [9]: rapidly developed resistance

colistin [reference compound]
MIC ([3]; Pseudomonas aeruginosa PAO1): 1 µg/mL | MIC ([8]; E. coli ATCC 25922 + 10% serum): 2 to 4 µg/mL | MIC [8, 19]: >64 µg/mL | MIC [8, 20]: >64 µg/mL | MIC ([8]; Escherichia coli ATCC 25922): 2 µg/mL | MIC [10]: 2 µg/mL | MIC [11]: 16 µg/mL

polymyxin B [reference compound]
time of exposure to significant reduction of viable cells [12]: 5 min | time to killing all cells [12]: ≤ 30 min | MIC ([1]; Saccharomyces cerevisiae): >64 µg/mL | MIC Sc [1]: ND (ND >64 μg/ml) | MIC [13]: 64 µg/mL | MIC [14]: 16 µg/mL | MIC ([2]; Bacillus subtilis 168): 4 µg/mL | MIC Bs [2]: 4 µg/mL | MIC ([3]; Pseudomonas aeruginosa PAO1): 1 µg/mL | MIC Pa [3, 17]: 1 µg/mL | MIC [4]: 4 µg/mL | MIC Ab [4]: 4 µg/mL | MIC [5]: >64 µg/mL | MIC Ca [5]: ND (ND >64 μg/ml) | MIC [6]: 8 µg/mL | MIC En [6]: 8 µg/mL | MIC ([7]; Staphylococcus aureus (MRSA)): 32 µg/mL | MIC MRSA [7]: 32 µg/mL | binding to LPS [15]: strong binding to LPS | MIC [16]: 2 µg/mL | MIC ([8]; E. coli ATCC 25922 + 10% serum): 1 to 2 µg/mL | MIC [8, 19]: >64 µg/mL | MIC [8, 20]: >64 µg/mL | MIC ([8]; Escherichia coli ATCC 25922): 1 µg/mL | MIC Ec [8, 18]: 1 µg/mL | MIC [10]: 2 µg/mL | MIC [11]: 16 µg/mL
